Laboratory results from patent publication US5589568A (priority 1994, dated 1996).
Read-outs that look alike come from different tables or passages of the source. Where a SMILES comes first, the peptide text is derived from it. Where no end group is shown, it is not given here. The star is where a group is joined. Dodecyl = CCCCCCCCCCCC*

Assays:
Go = target: T1, Go (Bos taurus, UniProt P08239); assay: steady state GTPase activity of Go in phospholipid vesicles; format: biochemical, bovine; settings: for Turnover number Go 10 μg/ml: 10 μg/ml amine; for Turnover number Go 10 μg/ml / Turnover number Go 100 μg/ml / GTPase Go 100 μM / GTPase Go 10 μM: 15 min at 20° C.; for Turnover number Go 10 μg/ml / GTPase Go 100 μM / GTPase Go 10 μM: PE/PC/PS vesicles; for Turnover number Go 100 μg/ml: 100 μg/ml amine; for GTPase Go 100 μM: 100 μM peptide; for GTPase Go 10 μM: 10 μM peptide; for ability to activate Gi and Go (in words): both Gi and Go, gramicidin S and dynorphin at 10 μM; for stimulation of GTPase activity: at higher concentrations, G protein not named in the sentence (Gi and Go tested)
T1 construct: proteins were extracted from bovine cerebral cortical membranes; from tissue; host or cells: bovine brain (cerebral cortical membranes)
T1 sequence (P08239 2-354 limits assumed): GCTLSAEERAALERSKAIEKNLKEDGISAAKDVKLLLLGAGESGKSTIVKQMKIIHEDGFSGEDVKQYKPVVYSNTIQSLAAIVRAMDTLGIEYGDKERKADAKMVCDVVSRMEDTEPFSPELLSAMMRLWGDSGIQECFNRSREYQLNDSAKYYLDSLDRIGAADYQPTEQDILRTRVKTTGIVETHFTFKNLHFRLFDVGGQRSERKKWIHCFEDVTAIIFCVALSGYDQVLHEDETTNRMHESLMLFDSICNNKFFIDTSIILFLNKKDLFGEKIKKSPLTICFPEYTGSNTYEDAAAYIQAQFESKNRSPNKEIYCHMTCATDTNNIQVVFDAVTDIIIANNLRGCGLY
T1 sequence (P62871 2-340 partner limits assumed): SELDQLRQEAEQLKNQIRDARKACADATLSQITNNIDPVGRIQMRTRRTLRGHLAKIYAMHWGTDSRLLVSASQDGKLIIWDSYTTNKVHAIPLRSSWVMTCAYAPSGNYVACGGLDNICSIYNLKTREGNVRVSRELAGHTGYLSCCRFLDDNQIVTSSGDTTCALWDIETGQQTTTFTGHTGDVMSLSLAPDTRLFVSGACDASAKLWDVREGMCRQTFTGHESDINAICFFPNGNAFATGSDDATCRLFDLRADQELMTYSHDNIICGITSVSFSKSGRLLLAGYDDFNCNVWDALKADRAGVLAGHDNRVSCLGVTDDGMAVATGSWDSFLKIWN
T1 sequence (P63212 2-68 partner limits assumed): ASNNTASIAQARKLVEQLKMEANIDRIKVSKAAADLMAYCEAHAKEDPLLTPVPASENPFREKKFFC

Gi = assay: steady state GTPase activity of Gi in phospholipid vesicles; format: biochemical, rabbit; settings: for Turnover number Gi 10 μg/ml: 10 μg/ml amine; for Turnover number Gi 10 μg/ml / Turnover number Gi 100 μg/ml / GTPase Gi 100 μM / GTPase Gi 10 μM: 30 min at 30° C.; for Turnover number Gi 100 μg/ml: 100 μg/ml amine; for GTPase Gi 100 μM: 100 μM peptide; for GTPase Gi 100 μM / GTPase Gi 10 μM: PE/PC/PS vesicles; for GTPase Gi 10 μM: 10 μM peptide;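 for all read-outs here: Steady-state GTP hydrolysis by Gi measured in a detergent-free buffer containing 1.1 mM MgSO4 plus the specified guanine nucleotide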
Method: G proteins were reconstituted into phospholipid vesicles composed of dioleoyl-PC/bovine brain PS/1-palmitoyl,2-oleoyl-PE (3:4:3) as reported previously by Higashijima et al., 1988, incorporated herein by reference.
The concentration of free Mg^2+ in assay medium that contains 5 mM EDTA and no added Mg^2+ is estimated to be 0.1-0.2 nM according to Brandt et al., 1988 and 1983.

Gs = Gs (Homo sapiens, UniProt P63092); assay: steady state GTPase activity of Gs; format: biochemical
Sequence of Gs (P63092 whole entry): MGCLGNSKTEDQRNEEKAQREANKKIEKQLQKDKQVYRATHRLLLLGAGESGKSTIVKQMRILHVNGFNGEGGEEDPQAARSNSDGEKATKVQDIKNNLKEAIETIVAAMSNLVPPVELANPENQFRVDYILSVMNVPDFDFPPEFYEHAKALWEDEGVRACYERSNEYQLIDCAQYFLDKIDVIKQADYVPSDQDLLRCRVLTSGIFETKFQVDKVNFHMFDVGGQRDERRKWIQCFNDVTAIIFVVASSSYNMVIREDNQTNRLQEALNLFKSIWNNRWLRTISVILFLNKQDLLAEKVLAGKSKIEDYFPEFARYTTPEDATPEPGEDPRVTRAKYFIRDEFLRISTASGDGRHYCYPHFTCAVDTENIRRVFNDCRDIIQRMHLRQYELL
Method: Methods for the assay of steady state GTP hydrolysis and GTPγS binding have been described previously by Higashijima, 1987, and Ferguson, 1986, and incorporated herein by reference. Unless noted otherwise, assays of steady state GTP hydrolysis and of the binding and dissociation of guanine nucleotides were carried out in the buffer described previously, but without detergent and with 1.1 mM MgSO4 and the nucleotide specified in the text. When necessary, the concentration of free Mg^2+ was adjusted using EDTA buffers as described previously by Higashijima, 1987, and incorporated herein by reference.
The data set forth in the following tables represent data generated by the inventors employing the steady state GTP hydrolysis, expressed as molar turnover numbers, are described herein under the "Assay" section of the Experimental Procedures in Example 1. The data has been classified according to the criteria outlined below and the effects of each peptide and modified variant on Go, Gi, and Gs have been tabulated. Table III below sets forth data generated for various mastoparan analogues designed by the inventors, in comparison with the various naturally-occurring mastoparans (e.g., MP, MP-A and MP-T). Table IV sets forth similar data generated for various receptor-based peptides designed by the inventors based on a consideration of various G-protein linked receptors.
Apparent affinity (af.) and apparent efficacy (ef.) were estimated by EC50 and maximum turnover number of GTPase activity.

[1] = Table VI, receptor-based peptides

Row | Compound | Turnover number Go 10 μg/ml (Go) [min⁻¹] | Turnover number Go 100 μg/ml (Go) [min⁻¹] | Turnover number Gi 10 μg/ml (Gi) [min⁻¹] | Turnover number Gi 100 μg/ml (Gi) [min⁻¹] | GTPase Go 100 μM (Go) [min⁻¹] | GTPase Gi 100 μM (Gi) [min⁻¹] | also measured
1 | CCCCCCCCCCCCSC[C@H](N)C(=O)N1CCC[C@H]1C(=O)N[C@@H](Cc1ccccc1)C(=O)N[C@@H](CCCNC(=N)N)C(=O)N[C@@H](Cc1ccc(O)cc1)C(=O)N[C@@H](CCC(N)=O)C(=O)N[C@@H](CO)C(=O)N[C@@H](CC(C)C)C(=O)N[C@@H](CCSC)C(=O)N[C@H](C(=O)N[C@@H](CCCNC(=N)N)C(=O)N[C@@H](C)C(=O)N[C@@H](CCCNC(=N)N)C(=O)N[C@@H](C)C(=O)N[C@@H](CCCCN)C(=O)N[C@H](C(=O)N[C@H](C(N)=O)[C@@H](C)CC)C(C)C)[C@@H](C)O [C12-ER39] (H-C(Dodecyl)PFRYQSLMTRARAKVI-NH2; N-terminus assumed) | – | – | – | – | – | – | Go ef. (apparent efficacy, maximum turnover number of GTPase activity) (Go; [1]): G (Good (G): 5-10 fold); Gi ef. (apparent efficacy, maximum turnover number of GTPase activity) (Gi; [1]): G (Good (G): 5-10 fold); EC50 (Gi; Table VI, receptor-based peptides, read-out: Gi af. (apparent affinity, estimated by EC50 of GTPase activity)): 3 to 10 µM; Gs ef. (apparent efficacy, maximum turnover number of GTPase activity) (Gs; [1]): F (Fair (F): 2-5 fold)
2 | CCCC[N+](CCCC)(CCCC)Cc1ccccc1.[Cl-] [BzBu3 NCl, reference compound] | 0.07 | 0.07 | 0.04 | 0.04 | – | – | –
3 | Substance P [reference compound] | – | – | – | – | 0.25 | 0.09 | stimulation of Go (Go; GTPase, Table II): more than 4 fold; stimulation of Gi (Gi; GTPase, Table II): more than 4 fold
4 | Gramicidin S [reference compound] | – | – | – | – | 0.47 | 0.31 | GTPase Go 10 μM (Go): 0.17 min⁻¹; ability to activate Gi and Go (in words) (Go; GTPase): somewhat stimulatory; GTPase Gi 10 μM (Gi): 0.13 min⁻¹
5 | CCCCCCCCCCCCCC[N+](C)(C)Cc1ccccc1.[Cl-] [BAC (C14), reference compound] | 0.9 | 0.2 | 0.04 | < 0.01 | – | – | –
6 | luteinizing hormone releasing hormone [LHRH, reference compound] | – | – | – | – | 0.04 | 0.03 | –
7 | CCCCCCCCCCCCCCCCCC[N+](C)(C)C.[Cl-] [C18 Me3 NCl, reference compound] | 0.61 | < 0.01 | 0.04 | < 0.01 | – | – | –
8 | α-Mating factor [reference compound] | – | – | – | – | 0.19 | 0.05 | stimulation of GTPase activity (Go): more than 3 fold
9 | Melanostatin [reference compound] | – | – | – | – | 0.05 | 0.03 | –
10 | Dynorphin [reference compound] | – | – | – | – | 0.33 | 0.10 | GTPase Go 10 μM (Go): 0.13 min⁻¹; ability to activate Gi and Go (in words) (Go; GTPase): somewhat stimulatory
11 | NC(=O)[C@@H]1CCCN1C(=O)[C@H](Cc1cnc[nH]1)NC(=O)[C@@H]1CCC(=O)N1 [TRH, thyrotropin releasing hormone, reference compound] | – | – | – | – | 0.06 | 0.03 | –
12 | Calcitonin [reference compound] | – | – | – | – | 0.09 | 0.01 | –
13 | CC[C@H](C)[C@H](NC(=O)[C@H](CCCNC(=N)N)NC(=O)[C@H](Cc1ccc(O)cc1)NC(=O)[C@H](CC(C)C)NC(=O)[C@H](CC(C)C)NC(=O)[C@H](CC(C)C)NC(=O)[C@@H](NC(=O)[C@H](CC(C)C)NC(=O)[C@@H](NC(=O)[C@H](CC(C)C)NC(=O)[C@H](CC(C)C)NC(=O)[C@@H](NC(=O)[C@H](C)NC(=O)[C@@H](NC(=O)[C@H](CC(C)C)NC(C)=O)[C@@H](C)O)C(C)C)[C@@H](C)O)[C@@H](C)O)C(=O)N[C@@H](CC(N)=O)C(=O)N[C@@H](CC(C)C)C(=O)N[C@@H](CCCCN)C(=O)N[C@@H](C)C(=O)N[C@@H](CC(C)C)C(=O)N[C@@H](C)C(=O)N[C@@H](C)C(=O)N[C@@H](CC(C)C)C(=O)N[C@@H](C)C(=O)N[C@@H](CCCCN)C(=O)N[C@@H](C)C(=O)N[C@@H](CC(C)C)C(=O)N[C@@H](CC(C)C)C(N)=O [ER26] | – | – | – | – | – | – | Goo ef. (apparent efficacy, maximum turnover number of GTPase activity) (Go; Table IV): F (Fair (F): 2-5 fold); G1 ef. (apparent efficacy, maximum turnover number of GTPase activity) (Gi; Table IV): G (Good (G): 5-10 fold); EC50 (Gi; Table IV, read-out: G1 af. (apparent affinity, estimated by EC50 of GTPase activity)): 3 to 10 µM; Gs ef. (apparent efficacy, maximum turnover number of GTPase activity) (Gs; Table IV): F (Fair (F): 2-5 fold)
14 | CCCCCCCCCCCCCCCC[N+](C)(C)Cc1ccccc1.[Cl-] [BAC (C16 ), reference compound] | 1.4 | 0.08 | 0.04 | < 0.01 | – | – | –
15 | CC[C@H](C)[C@H](NC(=O)CN)C(=O)NCC(=O)N[C@@H](C)C(=O)N[C@H](C(=O)N[C@@H](CC(C)C)C(=O)N[C@@H](CCCCN)C(=O)N[C@H](C(=O)N[C@@H](CC(C)C)C(=O)N[C@H](C(=O)N[C@H](C(=O)NCC(=O)N[C@@H](CC(C)C)C(=O)N1CCC[C@H]1C(=O)N[C@@H](C)C(=O)N[C@@H](CC(C)C)C(=O)N[C@H](C(=O)N[C@@H](CO)C(=O)N[C@@H](Cc1c[nH]c2ccccc12)C(=O)N[C@H](C(=O)N[C@@H](CCCCN)C(=O)N[C@@H](CCCNC(=N)N)C(=O)N[C@@H](CCCCN)C(=O)N[C@@H](CCCNC(=N)N)C(=O)N[C@@H](CCC(N)=O)C(=O)N[C@@H](CCC(N)=O)C(N)=O)[C@@H](C)CC)[C@@H](C)CC)[C@@H](C)O)[C@@H](C)O)C(C)C)C(C)C [Melittin, reference compound] | – | – | – | – | 0.56 | 0.40 | GTPase Go 10 μM (Go): 0.63 min⁻¹; ability to activate Gi and Go (in words) (Go; GTPase): potency and efficacy roughly equivalent to that of mastoparan; GTPase Gi 10 μM (Gi): 0,37 min^-1
16 | CCCCCCCCCCCC[N+](C)(C)C.[Cl-] [C12 Me3 NCl, reference compound] | 0.1 | 0.5 | 0.04 | 0.04 | – | – | –
17 | [D-Ala^2 ]Leu-enkephalin [DALE, reference compound] | – | – | – | – | 0.06 | 0.02 | –
18 | Ac-WKKLLKLLKKLLKL-NH2 [CBP6, reference compound] | – | – | – | – | 0.38 | 0.06 | GTPase Go 10 μM (Go): 0.76 min⁻¹; ability to activate Gi and Go (in words) (Go; GTPase): quite active; GTPase Gi 10 μM (Gi): 0.51 min⁻¹
19 | RPPGFSPFR [Bradykinin, reference compound] | – | – | – | – | 0.05 | 0.03 | –
20 | CCCCCCCCCCCCN [C12 NH3 Cl, dodecylamine] | 0.18 | 0.61 | 0.06 | 0.31 | – | – | stimulation of Gi by amines (in words) (Gi; Table III): stimulated Gi significantly
21 | CCCCCCCCCCCCCCCCCC[N+](C)(C)Cc1ccccc1.[Cl-] [BAC (C18 ), reference compound] | 1.1 | 0.3 | 0.03 | < 0.01 | – | – | –
22 | Angiotensin II (DRVYIHPF; Angiotensin-2; UniProt P01019 25-32, looked up) [reference compound] | – | – | – | – | 0.31 | 0.23 | stimulation of GTPase activity (Go): more than 3 fold
